Values quoted from earlier work in US10858526B2, “Water-based ink composition for ink jet recording and coloring material liquid” (Seiko Epson Corporation, priority 2017, dated 2020).

Settings: water-soluble organic solvent

Row | Structure (SMILES) | water-octanol partition coefficient (log P)
1 | CCCC(O)CCO (centres unmarked) [1,3-hexanediol] | 0.28
2 | CCCCOCCOCCO [butyl diglycol] | 0.56
